Where no end group is shown, it is not given here.
How the values were obtained:
DC-cells = assay: Cell penetration assay: staining for biotinylated peptides, dendritic cells gated as CD11c+; assay type: cell-based, human; details: low concentration of peptides (208 uM)
Experimental: A set of peptides were biotinylated on N-terminal, and different combinations of aminoacids, with respect to length and type, were added to the sequence box X^1, X^3 and X^4 in the peptides as illustrated by the diagram below. The peptides were tested on cells grown from one individual blood donor.
96-well U-bottom polystyrene plates (NUNC, cat no: 163320) were used for staining of human PBMCs. Briefly, 8 ul of N- or C-terminally biotinylated peptides according to table 1 or table 2 (i.e. 5 mM, 2.5 mM & 1.25 mM tested for each peptide) were incubated at 37° C. for 2 h with 40 ul of PBMC (12.5×10^6 cells/ml) from blood donors. Cells were then washed 3× with 150 ul of Cellwash (BD, cat no: 349524), followed by resuspension of each cell pellet with 100 ul of Trypsin-EDTA (Sigma, cat no: T4424), then incubated at 37° C. for 5 min. Trypsinated cells were then washed 3× with 150 ul of Cellwash (BD, cat no: 349524), followed by resuspension with BD Cytofix/Cytoperm™ plus (BD, cat no: 554715), then incubated at 4° C. for 20 min according to manufacturer. Cells were then washed 2× with 150 ul PermWash (BD, cat no: 554715). Cells were then stained with Streptavidin-APC (BD, cat no: 554067) & Anti-hCD11c (eBioscience, cat no: 12-0116) according to manufacturer at 4° C. for 30 min aiming to visualize biotinylated peptides & dendritic cells, respectively. Cells were then washed 3× with 150 ul PermWash, followed by resuspension in staining buffer (BD, cat no: 554656) before flow cytometry. Dendritic cells were gated as CD11c+ events outside lymphocyte region (i.e. higher FSC & SSC signals than lymphocytes). 200 000 total cells were acquired on a FACSCanto II flow cytometer with HTS loader, and histograms for both total cells & dendritic cells with respect to peptide-fluorescence (i.e. GeoMean) were prepared.
As shown in table 4 the peptides according to the invention had the ability to allocate through the cell membrane.

human PBMCs = assay type: cell-based

Row | Sequence | Results on DC-cells (geomean peptide-fluorescence) (DC-cells; BC 16) | Results on DC-cells (geomean peptide-fluorescence) (DC-cells; BC43) | Intracellular staining, median (human PBMCs)
1 | BRLIFLARSALILBGRSALILRGSVAHK [120b] | 44185 | – | –
2 | WWGYIPLVGAPLGRRVARALAHGVRV [SP13_c] (WWGYIPLVGAPLGRRVARALAHGVRV-NH2) | – | 60307 | –
3 | RRNYVTGNIPGBRGITFSIFLIVS [SP61_2] | 128330 | 150491 | –
4 | LFFKCIYRLFKHGLKRGPSTEGVPESM [BI10024b] | 26892 | 13002 | –
5 | WWIRNLGRVIETLTRRLZGYIPLIGA [SP42_1] | 73973 | – | –
6 | RRVTGNIPGSTYSGBRGITFSIYLIVS [SP25] | 11552 | – | –
7 | WWNYVTGNIPGBRGITFSIFLIVS [SP61_3] | 47182 | 36803 | –
8 | YGRKKRRQRRR [compound 4, Positive control (tat), reference compound] | – | – | 4.43
9 | IAYERMCNILKGKFQTAAQRA [190n] | 18616 | 23383 | –
10 | BRRLFFKTITRLFBHGLRRLLSTEGVPNSZ [BI10026] | 65196 | 43536 | –
11 | RRGYIPLVGAPLGRRRVARALAHGVRV [SP6_c] (RRGYIPLVGAPLGRRRVARALAHGVRV-NH2) | 17964 | 38487 | –
12 | BRTAYERZCNILBRGRFQTVVQBA [compound 190] | 12906 | – | –
13 | BRGLEPLVIAGILARRGSLVGLLHIVL [BI100260] | 47846 | – | –
14 | BRLIFLARSALIVRGSVAHKS [100-12] | 24792 | 45622 | –
15 | RRRGYIPLVGAPLGBRVARALAHGVRV [SP8_c] | 9159 | 23763 | –
16 | KKGYIPLVGAPLGKKVARALAHGVRV [SP11_c] (KKGYIPLVGAPLGKKVARALAHGVRV-NH2) | 5371 | 7878 | –
17 | RRGGGQIVGGVYLLPRRGPRLGVRATR [310-11-n-sc] | 25236 | – | –
18 | GYIPLVGAPLGGVARALAHGVRV [51n] | 5551 | 7721 | –
19 | RRGYIPLVGAPLGRRVARALAHGVRV [SP5_c] (RRGYIPLVGAPLGRRVARALAHGVRV-NH2) | 16908 | 24403 | –
20 | RNIVPZVVTARRNIVPZVVTAB [BI-050sc5] | 13648 | 15549 | –
21 | WWNYVTGNIPGRRGITFSIFLIVS [SP61_4] | 12829 | – | –
22 | BRIAYERMCNILLBRGKFQTAAQRA [190b] | 12391 | 20444 | –
23 | RNLVPMVATVRRNLVPMVATVB [BI-050sc1] | 6056 | 6160 | –
24 | WWGYIPLVGAPLGRVARALAHGVRV [SP23] | 17084 | 12801 | –
25 | BRGSDPLVVAASIVRRASIVGILHLIL [BI100260b] | 37702 | – | –
26 | EDLIFLARSALILRGSVAHKS [100-22b] | 43537 | 28780 | –
27 | WWGYIPLVGAPLGRRVARALAHGVRV [SP21] (WWGYIPLVGAPLGRRVARALAHGVRV-NH2) | 26525 | 4294 | –
28 | PEVIPMFSALSEGATPQDLNTMLN [N10] | 4597 | – | –

From patent US9550811B2, “Peptide scaffold design” (BIONOR IMMUNO AS, priority 2010, dated 2017)
